Source: ChEMBL document CHEMBL4808194, “Design, synthesis and biological evaluation of novel 2,4-disubstituted quinazoline derivatives targeting H1975 cells via EGFR-PI3K signaling pathway” (Bioorg Med Chem, 2021)

Legend:
Assay in all cases: cells
Format in all cases: functional, cell-based
MGC-803 = settings: Homo sapiens, MGC-803, 72 h
Description: Antiproliferative activity against human MGC-803 cells assessed as inhibition of cell growth incubated for 72 hrs by MTT assay

MDA-MB-231 = settings: Homo sapiens, MDA-MB-231, 72 h
PC-3 = settings: Homo sapiens, PC-3, 72 h
Description: Antiproliferative activity against human PC-3 cells assessed as inhibition of cell growth incubated for 72 hrs by MTT assay

NCI-H1975 = settings: Homo sapiens, NCI-H1975, 72 h
Description: Antiproliferative activity against human NCI-H1975 cells assessed as inhibition of cell growth incubated for 72 hrs by MTT assay

IC50 (MGC-803) [µM]	IC50 (MDA-MB-231) [µM]	IC50 (PC-3) [µM]	IC50 (NCI-H1975) [µM]	Structure (SMILES)
26.1	18.7	9.34	6.58	C=CC(=O)Nc1cccc(NC(=O)CSc2nc(Nc3ccccc3F)c3ccccc3n2)c1
20.9	21.6	15.5	9.39	O=C(CSc1nc(Nc2ccccc2)c2ccccc2n1)Nc1ccc(F)c(Cl)c1
14.3	16.5	12.6	8.46	O=C(CSc1nc(Nc2ccccc2)c2ccccc2n1)Nc1cccc(Cl)c1
> 50	17.7	27.6	19.1	C=CC(=O)Nc1cccc(NC(=O)CSc2nc(Nc3ccc(Cl)c(Cl)c3)c3ccccc3n2)c1
12.1	23.1	25.7	5.99	C=CC(=O)Nc1cccc(NC(=O)CSc2nc(Nc3ccc(Cl)cc3Cl)c3ccccc3n2)c1
9.62	17.5	11.4	10.1	O=C(CSc1nc(Nc2ccccc2)c2ccccc2n1)Nc1cccc(Br)c1
12.8	15.2	17.1	19.3	C=CC(=O)Nc1cccc(NC(=O)CSc2nc(Nc3ccccc3Br)c3ccccc3n2)c1
7.85	10.6	> 50	> 50	C=CC(=O)Nc1cccc(NC(=O)CSc2nc(Nc3ccc(F)c(Cl)c3)c3ccccc3n2)c1
19.3	11.5	8.45	10.6	O=C(CSc1nc(Nc2ccccc2)c2ccccc2n1)Nc1ccc(Br)cc1
10.7	> 50	12.4	9.35	O=C(CSc1nc(Nc2ccccc2)c2ccccc2n1)Nc1ccccc1F
7.31	10.2	8.74	8.12	C=CC(=O)Nc1cccc(NC(=O)CSc2nc(Nc3ccccc3)c3ccccc3n2)c1
10	21.7	11.6	19.4	COc1cccc(NC(=O)CSc2nc(Nc3ccccc3)c3ccccc3n2)c1
11.5	17.2	12.4	6.28	C=CC(=O)Nc1cccc(NC(=O)CSc2nc(Nc3ccc(Br)cc3)c3ccccc3n2)c1
20.9	16.8	29.2	12.1	C=CC(=O)Nc1cccc(NC(=O)CSc2nc(Nc3cccc(C)c3)c3ccccc3n2)c1
28.1	33	11.8	17.9	O=C(CSc1nc(Nc2ccccc2)c2ccccc2n1)Nc1cccc([N+](=O)[O-])c1
18.6	14.1	19.8	10.3	O=C(CSc1nc(Nc2ccccc2)c2ccccc2n1)Nc1ccccc1Br

Second part, the compound before the results:

Structure (SMILES)	IC50 (MGC-803) [µM]	IC50 (MDA-MB-231) [µM]	IC50 (PC-3) [µM]	IC50 (NCI-H1975) [µM]
O=C(CSc1nc(Nc2ccccc2)c2ccccc2n1)Nc1ccc(Cl)cc1Cl	12.3	19.4	9.11	8.41
C=CC(=O)Nc1cccc(NC(=O)CSc2nc(Nc3ccc(C(F)(F)F)cc3)c3ccccc3n2)c1	12.1	11.5	12.5	12.9
CCc1ccc(NC(=O)CSc2nc(Nc3ccccc3)c3ccccc3n2)cc1	> 50	33.9	17.9	9.91
O=C(CSc1nc(Nc2ccccc2)c2ccccc2n1)Nc1ccc([N+](=O)[O-])cc1	> 50	16.8	25	13
C=CC(=O)Nc1cccc(NC(=O)CSc2nc(Nc3ccccc3C)c3ccccc3n2)c1	30.2	20.4	23.2	9.92
C=CC(=O)Nc1cccc(NC(=O)CSc2nc(Nc3cccc(Cl)c3)c3ccccc3n2)c1	7.83	16.3	12.3	9.46
O=C(CSc1nc(Nc2ccccc2)c2ccccc2n1)Nc1ccc(F)cc1	> 50	34.1	9.56	16.5
C=CC(=O)Nc1cccc(NC(=O)CSc2nc(Nc3ccc(Cl)cc3)c3ccccc3n2)c1	14.3	10.3	10.8	7.58
O=C(CSc1nc(Nc2ccccc2)c2ccccc2n1)Nc1ccc(C(F)(F)F)cc1	8.67	11.1	10.4	11.7
C=CC(=O)Nc1cccc(NC(=O)CSc2nc(Nc3ccc(F)cc3)c3ccccc3n2)c1	8.29	9.49	8.24	4.43
O=C(CSc1nc(Nc2ccccc2)c2ccccc2n1)Nc1cccc(F)c1	12.7	> 50	15.6	6.79
C=CC(=O)Nc1cccc(NC(=O)CSc2nc(Nc3ccccc3Cl)c3ccccc3n2)c1	20.7	12.7	14.4	10
C=CC(=O)Nc1cccc(NC(=O)CSc2nc(Nc3cccc(Br)c3)c3ccccc3n2)c1	11.9	19.4	15	12.1
C=CC(=O)Nc1cccc(NC(=O)CSc2nc(Nc3ccc(CC)cc3)c3ccccc3n2)c1	8.01	14.4	24.3	8.27
C=CC(=O)Nc1cccc(NC(=O)CSc2nc(Nc3cccc(OC)c3)c3ccccc3n2)c1	24.2	12.9	34.9	7.94
CCc1cccc(NC(=O)CSc2nc(Nc3ccccc3)c3ccccc3n2)c1	15.8	12.4	11	12
C=CC(=O)Nc1cccc(NC(=O)CSc2nc(Nc3cc(OC)c(OC)c(OC)c3)c3ccccc3n2)c1	> 50	> 50	> 50	> 50
C=CC(=O)Nc1cccc(NC(=O)CSc2nc(Nc3cccc([N+](=O)[O-])c3)c3ccccc3n2)c1	> 50	> 50	46.3	22.6
O=C(CSc1nc(Nc2ccccc2)c2ccccc2n1)Nc1ccc(Cl)c(Cl)c1	37.9	14.5	12.1	10.4
O=C(CSc1nc(Nc2ccccc2)c2ccccc2n1)Nc1ccc(Cl)cc1	40.4	17.2	12.8	8.04
O=C(CSc1nc(Nc2ccccc2)c2ccccc2n1)Nc1ccccc1Cl	24.8	24.4	14.6	9.61
